How the values were obtained:
[1] = tested on: liver progenitor cells (oval cells); test: Primary oval cell culture on Sw-3T3 feeder fibroblasts: colony formation and proliferation; assay type: cell-based, mouse
Description: To elucidate the role of Notch signaling in liver regeneration, an in vitro culture system was developed. Cell cultures were established by culturing primary oval cells on Sw-3T3 fibroblasts (ATCC), arrested with Mitomycin C (Sigma), in High Glucose Dulbecco's Modified Eagle Medium (DMEM; Invitrogen) supplemented with 15% Fetal Calf Serum (Sigma), non-essential amino acids (Invitrogen), Glutamax (Invitrogen), and ITS (Invitrogen).

Notch2 = biological target: T1, Notch2 (Mus musculus, UniProt O35516); test: Notch2 signaling in cultured oval cells (activated Notch2 ICD by Western blot, Hes1 expression); assay type: cell-based; details: FIG. 2H
T1 construct: Cell cultures were established by culturing primary oval cells on Sw-3T3 fibroblasts; endogenous in cells; host or cells: primary mouse liver oval (progenitor) cells
Description: The anti-activated Notch2 antibody (clone 40-2-7) was generated against the peptide VIMAKRKRKHGSLW, corresponding to amino acids 1697-1710 of the human Notch2 protein sequence (SEQ ID NO:73), coupled to KLH (YenZym Custom Antibodies, LLC). Splenocytes from a rabbit producing an antibody with the appropriate specificity were used to generate hybridomas (Epitomics, Inc.). Clone 40-2-7 was identified by screening the resulting rabbit monoclonal antibodies by immunoblotting and immunohistochemistry. This antibody recognizes both human (FIG. 7B, left panel) and mouse (FIG. 7B, right panel) active Notch2 at endogenous levels.
Progenitors cultured in the culture system maintained growth (FIG. 2A) and formed colonies consisting of small, tightly packed cells with a high nuclear-cytoplasmic ratio and a distinct raised edge (FIG. 2A, left panel). The cells within these colonies were uniformly EpCAM positive (FIG. 2A, right panel). […] Activated Notch2 was detected by Western blot analysis using a rabbit monoclonal antibody raised against the S3 cleaved form of the human Notch2 protein (FIG. 7B). […]
Notch2 signaling was active in cultured oval cells, as transcriptionally active Notch2 intracellular domain (ICD) could be detected using an antibody specific to the γ-secretase cleaved form of this receptor (FIG. 2H). […]

T1 sequence (O35516 26-2473): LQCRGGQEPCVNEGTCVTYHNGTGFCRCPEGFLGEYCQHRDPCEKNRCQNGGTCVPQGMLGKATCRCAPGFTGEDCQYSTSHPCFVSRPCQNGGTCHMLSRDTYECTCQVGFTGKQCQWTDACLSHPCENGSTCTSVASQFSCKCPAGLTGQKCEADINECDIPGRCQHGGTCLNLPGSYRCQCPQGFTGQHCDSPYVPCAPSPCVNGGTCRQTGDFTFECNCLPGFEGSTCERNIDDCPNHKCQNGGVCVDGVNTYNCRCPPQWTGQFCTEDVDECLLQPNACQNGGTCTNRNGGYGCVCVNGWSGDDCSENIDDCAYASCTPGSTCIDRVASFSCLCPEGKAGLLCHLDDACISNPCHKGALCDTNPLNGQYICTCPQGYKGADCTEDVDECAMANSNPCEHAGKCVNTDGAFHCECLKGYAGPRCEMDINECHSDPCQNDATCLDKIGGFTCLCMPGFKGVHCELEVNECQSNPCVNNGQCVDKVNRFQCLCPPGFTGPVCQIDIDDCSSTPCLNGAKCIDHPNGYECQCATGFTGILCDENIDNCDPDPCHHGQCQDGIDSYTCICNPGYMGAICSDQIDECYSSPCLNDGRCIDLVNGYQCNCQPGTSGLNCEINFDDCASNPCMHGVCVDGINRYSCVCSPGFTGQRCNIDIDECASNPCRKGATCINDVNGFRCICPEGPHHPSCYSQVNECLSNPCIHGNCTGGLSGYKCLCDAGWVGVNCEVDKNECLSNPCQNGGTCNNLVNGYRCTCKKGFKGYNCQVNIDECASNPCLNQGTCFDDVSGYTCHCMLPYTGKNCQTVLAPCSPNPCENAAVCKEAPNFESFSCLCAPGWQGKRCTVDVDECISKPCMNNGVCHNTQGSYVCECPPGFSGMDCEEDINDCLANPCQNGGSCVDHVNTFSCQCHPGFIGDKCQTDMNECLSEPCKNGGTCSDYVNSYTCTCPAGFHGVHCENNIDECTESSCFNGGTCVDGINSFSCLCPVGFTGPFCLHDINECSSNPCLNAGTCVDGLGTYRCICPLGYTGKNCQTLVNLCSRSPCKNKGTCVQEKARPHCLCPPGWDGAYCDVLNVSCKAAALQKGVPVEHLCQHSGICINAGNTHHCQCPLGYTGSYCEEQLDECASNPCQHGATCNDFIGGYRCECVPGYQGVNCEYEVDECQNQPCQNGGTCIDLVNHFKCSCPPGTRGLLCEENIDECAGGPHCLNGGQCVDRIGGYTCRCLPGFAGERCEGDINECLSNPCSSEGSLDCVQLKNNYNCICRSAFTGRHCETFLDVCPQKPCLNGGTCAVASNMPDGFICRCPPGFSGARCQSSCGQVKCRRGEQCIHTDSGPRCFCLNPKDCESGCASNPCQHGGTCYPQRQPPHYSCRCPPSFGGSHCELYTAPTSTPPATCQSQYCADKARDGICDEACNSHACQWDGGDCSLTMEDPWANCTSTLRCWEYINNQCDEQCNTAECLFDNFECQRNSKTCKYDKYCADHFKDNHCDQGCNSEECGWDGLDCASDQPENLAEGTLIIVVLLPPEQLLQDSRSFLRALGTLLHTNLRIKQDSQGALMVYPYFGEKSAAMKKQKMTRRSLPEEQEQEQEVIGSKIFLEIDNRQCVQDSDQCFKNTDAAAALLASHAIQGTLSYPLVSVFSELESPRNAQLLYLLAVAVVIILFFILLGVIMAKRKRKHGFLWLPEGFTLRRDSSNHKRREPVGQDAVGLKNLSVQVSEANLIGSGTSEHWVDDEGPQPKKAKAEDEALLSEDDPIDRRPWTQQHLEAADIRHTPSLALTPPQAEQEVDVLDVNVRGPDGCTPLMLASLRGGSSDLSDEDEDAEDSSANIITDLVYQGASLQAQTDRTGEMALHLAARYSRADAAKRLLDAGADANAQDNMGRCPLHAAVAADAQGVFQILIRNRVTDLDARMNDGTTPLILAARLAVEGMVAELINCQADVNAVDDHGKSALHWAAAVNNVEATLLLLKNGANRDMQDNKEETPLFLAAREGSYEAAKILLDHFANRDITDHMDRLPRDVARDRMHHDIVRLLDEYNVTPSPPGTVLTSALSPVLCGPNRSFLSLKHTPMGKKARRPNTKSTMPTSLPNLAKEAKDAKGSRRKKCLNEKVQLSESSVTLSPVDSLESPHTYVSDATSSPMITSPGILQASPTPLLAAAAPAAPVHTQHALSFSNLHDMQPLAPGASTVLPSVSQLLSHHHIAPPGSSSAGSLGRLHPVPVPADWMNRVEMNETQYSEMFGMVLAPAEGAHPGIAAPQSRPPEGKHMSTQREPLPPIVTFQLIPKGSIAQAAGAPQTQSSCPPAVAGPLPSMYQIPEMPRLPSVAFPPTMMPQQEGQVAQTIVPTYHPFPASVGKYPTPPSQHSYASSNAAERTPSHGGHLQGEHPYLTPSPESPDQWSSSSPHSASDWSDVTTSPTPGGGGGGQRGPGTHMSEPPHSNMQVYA

appearance of gamma-secretase cleaved (active) form of Notch2 (ICD) (Notch2): absent
Compound: C[C@H](NC(=O)Cc1cc(F)cc(F)c1)C(=O)N[C@H](C(=O)OC(C)(C)C)c1ccccc1 [DAPT, N—[N-(3,5-difluorophenacetyl)-1-alanyl]-S-phenylglycine t-butyl ester]
progenitor cell proliferation ([1]; FIG. 2D): small increase | colony formation frequency ([1]; plated CD45 negative, non-parenchymal cells, without DAPT approximately 1 colony per 100,000): approximately 1 colony per 10,000 cells plated | enhancement of colony formation ([1]; primary cultures treated with DAPT vs untreated, FIG. 2B): approximately ten-fold
